Test results from paper PMC6576746, “Rational discovery of dual-indication multi-target PDE/Kinase inhibitor for precision anti-cancer therapy using structural systems pharmacology” (PLoS Computational Biology, 2019).

Tests used:
Test in all cases: cells
Parameters in all cases: species or system panel of human cancer cell lines; Eurofins OncoPanel proliferation; nuclei count by high-content fluorescence imaging, 10-point dose response
BV-173 = details: Homo sapiens, BV-173, 72 h, cell count, 3 days
Method in brief: (§1)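 Ten half-log concentrations from 100 μM (0.1% DMSO max) applied one day post-seeding, 3-day exposure at 37°C; untreated time-zero plate for GI50. Readout is nuclear cell count by automated fluorescence imaging, giving EC50, IC50, GI50 and 0–10 activity area.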

BxPC-3 = details: Homo sapiens, BXPC-3, 72 h, cell count, 3 days
Method in brief: as §1

DLD-1 = details: Homo sapiens, DLD-1, 72 h, cell count, 3 days
Method in brief: as §1

HEL-92-1-7 = details: Homo sapiens, HEL 92.1.7, 72 h, cell count, 3 days
Method in brief: as §1

HT-29 = details: Homo sapiens, HT-29, 72 h, cell count, 3 days
Method in brief: as §1

MEG01 = details: Homo sapiens, MEG-01, 72 h, cell count, 3 days
Method in brief: as §1

NCI-H292 = details: Homo sapiens, NCI-H292, 72 h, cell count, 3 days
Method in brief: as §1

NCI-H596 = details: Homo sapiens, NCI-H596, 72 h, cell count, 3 days
Method in brief: as §1

PFSK-1 = details: Homo sapiens, PFSK-1, 72 h, cell count, 3 days
Method in brief: as §1

SK-PN-DW = details: 72 h, cell count, 3 days
Method in brief: as §1

SK-UT-1 = details: Homo sapiens, SK-UT-1, 72 h, cell count, 3 days
Method in brief: as §1

SW837 = details: Homo sapiens, SW837, 72 h, cell count, 3 days
Method in brief: as §1

TE 381.T = details: TE 381.T, 72 h, cell count, 3 days
Method in brief: as §1

TF-1 = details: Homo sapiens, TF-1, 72 h, cell count, 3 days
Method in brief: as §1

[1] = 50% of maximum possible response

IC50 (BxPC-3; [1]): 89.2 µM
GI50 (BxPC-3; corrected for time zero): 78 µM
EC50 (BxPC-3; curve inflection point): 89.2 µM
IC50 (DLD-1; [1]): 25.1 µM
GI50 (DLD-1; corrected for time zero): 23.7 µM
EC50 (DLD-1; curve inflection point): 23.9 µM
IC50 (HT-29; [1]): > 100 µM
GI50 (HT-29; corrected for time zero): 82.7 µM
EC50 (HT-29; curve inflection point): > 100 µM
IC50 (NCI-H292; [1]): 40.3 µM
GI50 (NCI-H292; corrected for time zero): 34.4 µM
EC50 (NCI-H292; curve inflection point): 40.3 µM
IC50 (NCI-H596; [1]): > 100 µM
GI50 (NCI-H596; corrected for time zero): > 100 µM
EC50 (NCI-H596; curve inflection point): 55.5 µM
IC50 (SK-PN-DW; [1]): 57.4 µM
GI50 (SK-PN-DW; corrected for time zero): 43.3 µM
EC50 (SK-PN-DW; curve inflection point): 57.4 µM
IC50 (SK-UT-1; [1]): 11.8 µM
GI50 (SK-UT-1; corrected for time zero): 9.1 µM
EC50 (SK-UT-1; curve inflection point): 11.8 µM
IC50 (SW837; [1]): 37.5 µM
GI50 (SW837; corrected for time zero): 31.8 µM
EC50 (SW837; curve inflection point): 33.3 µM
SMILES: C[C@@H]1CC(=O)NN=C1c1ccc(NN=C(C#N)C#N)cc1 [levosimendan]
IC50 (BV-173; [1]): 12 µM
GI50 (BV-173; corrected for time zero): 10.1 µM
EC50 (BV-173; curve inflection point): 12 µM
IC50 (HEL-92-1-7; [1]): 21.8 µM
GI50 (HEL-92-1-7; corrected for time zero): 17.9 µM
EC50 (HEL-92-1-7; curve inflection point): 21.8 µM
IC50 (MEG01; [1]): 83.2 µM
GI50 (MEG01; corrected for time zero): 58.5 µM
EC50 (MEG01; curve inflection point): 83.2 µM
IC50 (PFSK-1; [1]): 19.6 µM
GI50 (PFSK-1; corrected for time zero): 13.9 µM
EC50 (PFSK-1; curve inflection point): 19.6 µM
IC50 (TE 381.T; [1]): 24.5 µM
GI50 (TE 381.T; corrected for time zero): 15.5 µM
EC50 (TE 381.T; curve inflection point): 24.5 µM
IC50 (TF-1; [1]): 41.7 µM
GI50 (TF-1; corrected for time zero): 19.7 µM
EC50 (TF-1; curve inflection point): 41.7 µM
